Laboratory results published in patent US5106835A, “Renin inhibitors” (American Cyanamid Company, priority 1990, dated 1992).
pIC50: −log10 of the molar value.

Target: T1, human kidney renin (Homo sapiens, UniProt P00797)
T1 construct: Human renin was prepared from human kidney; from tissue; host or cells: human kidney
T1 sequence (P00797 67-406): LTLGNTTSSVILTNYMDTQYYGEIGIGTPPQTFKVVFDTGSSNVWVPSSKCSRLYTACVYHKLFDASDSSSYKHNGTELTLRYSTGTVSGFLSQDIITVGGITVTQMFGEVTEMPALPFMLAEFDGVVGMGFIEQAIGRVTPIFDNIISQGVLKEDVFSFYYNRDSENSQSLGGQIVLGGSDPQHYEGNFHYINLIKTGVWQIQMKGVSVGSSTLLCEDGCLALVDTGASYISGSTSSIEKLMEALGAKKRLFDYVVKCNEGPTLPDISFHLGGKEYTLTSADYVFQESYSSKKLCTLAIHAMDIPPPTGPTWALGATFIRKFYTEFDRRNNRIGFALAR
Experiment: Radioimmunoassay screen for renin inhibitors (angiotensin I generation, then quantitation by radioimmunoassay)
Format: biochemical
Details: for pIC50: human kidney renin, purified human plasma angiotensinogen, maleate buffer pH 6.0, 1 hour at 37° C., read-out: IC50 Molar Concentration
Description: Radioimmunoassay Screen For Renin Inhibitors
The in vitro method for the screening of anti-renin compounds involves, first, angiotensin I generation, and second, the quantitation of the angiotensin I produced by radioimmunoassay.
The incubation medium consisted of 20 μl of purified human plasma angiotensinogen (1); 40 μl of human kidney renin (2); 5 μl of phenylmethylsulfonyl fluoride; 10 μl of disodium EDTA (10 mM); 10 μl of antirenin compound (5×10^-3, 5×10^-4, 5×10^-5) in dimethylformamide, or ethanol and a suitable amount of maleate buffer (77mM, pH 6.0) to make a final volume of 500 μl. The reaction mixture was incubated for 1 hour at 37° C. and the enzymatic reaction was stopped by placing the tube in ice-cold water. The angiotension I generated during the incubation was measured by a radioimmunoassay plasma renin activity kit (Clinical Assays, Inc.).
Radioimmunoassay Procedure
The incubation medium consisted of either 100 μl aliquots of the above reaction mixture or a standard amount of angiotensin I; 1000 μl of phosphate buffer (100 mM, pH7.6) and 100 μl of (^125 I)angiotensin in a gamma-coat, tube. After three hours of incubation at room temperature, the tubes were decanted, and the radioactivity of each tube was determined in a gamma counter. Duplicate determinations were performed for each incubation. The results were expressed in ng of angiotensin I generated per ml of generation medium per hour of incubation (ng/AI/ml/hr), and the % of inhibition was obtained by the following: % inhibition= [formula]
The results of this test on representative compounds of this invention appear in Table I, expressed as an IC50.
(1) The human plasma angiotensinogen derived from the blood of a person receiving oral contraceptive pills was purified by chromatography on a pepstatin-aminohexyl-agarose column.
(2) Human renin was prepared from human kidney.

pIC50	SMILES	further results
4.85	CC(C)C[C@H](NC(=O)C(NC(=O)[C@H](Cc1ccccc1)NC(=O)OCc1ccccc1)SC(C)C)[C@@H](O)c1nccs1 (stereo partly drawn) [N-[N-[(Phenylmethoxy)carbonyl-L-phenylalanyl-L-2-(isopropylthio)glycyl]-(S)2-amino-4-methyl-(R)1-(2-thiazaolyl)pentan-1-ol]	–
6.00	CC(C)O[C@@H](NC(=O)[C@H](Cc1ccccc1)NC(=O)OCc1ccccc1)C(=O)N[C@@H](CC1CCCCC1)[C@@H](O)c1ccccn1 [N-[N-[(Phenylmethoxy)carbonyl]-L-phenylalanyl-D-2-(1-methylethoxy)glycyl]-(S)2-amino-3-cyclohexyl-(R)1-(2-pyridinyl)propan-1-ol]	–
7.34	CC(C)SC(NC(=O)[C@H](Cc1ccccc1)NC(=O)OCc1ccccc1)C(=O)N[C@@H](CC1CCCCC1)[C@@H](O)c1ccccn1 (stereo partly drawn) [N-[N-(Phenylmethoxy)carbonyl-L-phenylalanyl-L-2-(isopropylth] [N-[N-[(Phenylmethoxy)carbonyl]-L-phenylalanyl-L-2-(isopropylthio)glycyl]-(S)2-amino-3-cyclohexyl-(R)1-(2-pyridinyl)propan-1-ol]	–
7.62	CC(C)OC(NC(=O)[C@H](Cc1ccccc1)NC(=O)OCc1ccccc1)C(=O)N[C@@H](CC1CCCCC1)[C@@H](O)c1ccccn1 (stereo partly drawn) [N-[N-[ (Phenylmethoxy)carbonyl]-L-phenylalanyl-L-2-(1-methylethoxy)glycyl]-(S)2-amino-3-cyclohexyl-(R)1-(2-pyridinyl)propan-1-ol]	–
4.96	CC(C)COC(NC(=O)[C@H](Cc1ccccc1)NC(=O)OCc1ccccc1)C(=O)N[C@@H](CC1CCCCC1)[C@@H](O)c1nccs1 (stereo partly drawn) [N-[Phenylmethoxy)carbonyl]-L-phenylalanyl-D-2-(2-methylpropo] [N-[(Phenylmethoxy)carbonyl]-L-phenylalanyl-D 2-(2-methylpropoxy)glycyl-(1R,2S)-2-amino-3-cyclohexyl-1-(2-thiazolyl)propan-1-ol]	–
4.80	CC(C)SC(NC(=O)[C@H](Cc1ccccc1)NC(=O)OCc1ccccc1)C(=O)N[C@@H](CC1CCCCC1)[C@@H](O)c1ccccn1 (stereo partly drawn) [N-[N-(phenylmethoxy)carbonyl-L-phenylalanyl-D-2-(isopropylth] [N-[N[(phenylmethoxy)carbonyl]-L-phenylalanyl-D-2-(isopropylthio)glycyl]-(S)2-amino-3-cyclohexyl-(R)1-(2-pyridinyl)-propan-1-ol]	–

The remaining lines, values behind:

SMILES	pIC50	further results
CC(C)COC(NC(=O)OCc1ccccc1)C(=O)N[C@@H](CC1CCCCC1)[C@@H](O)c1ccccn1 (stereo partly drawn) [N-[N-(Phenylmethoxy)carbonyl-L-2-(2-methylpropoxy)glycyl]-(S)2-amino-3-cyclohexyl(R)1-(2-pyridinyl)propan-1-ol]	6.80	–
CC(C)C[C@H](NC(=O)[C@H](Cc1ccccc1)NC(=O)OC(C)(C)C)C(=O)N[C@@H](CC(C)C)[C@@H](O)c1cccs1 [N-[N-(tert-Butoxycarbonyl)-L-phenylalanyl-L-leucyl]-(S)2-amino-4-methyl-(R)1-(2-thienyl)-pentan-1-ol]	5.35	–
CC(C)CO[C@H](NC(=O)[C@H](Cc1ccccc1)NC(=O)OCc1ccccc1)C(=O)N[C@H](C=O)CC(C)C [N-[(Phenylmethoxy)carbonyl]-L-phenylalanyl-N-[(S)-1-formyl-3-methylbutyl]-L-2-(2-methylpropoxy)glycinamide]	–	% Renin Inhibition (Molar Concentration 1 × 10^-4): 70%; % Renin Inhibition (Molar Concentration 1 × 10^-5): 50%
CC(C)COC(NC(=O)[C@H](Cc1ccccc1)NC(=O)OCc1ccccc1)C(=O)N[C@@H](CC(C)C)[C@@H](O)c1ncnn1C (stereo partly drawn) [N-[N-(Benzyloxycarbonyl)-L-phenylalanyl-L-2-(2-methylpropoxy)glycl]-(S)2-amino-4-methyl(R)1-(1-methyl-1H-1,2,4-triazol-5-yl)pentan-1-ol]	–	% Renin Inhibition (Molar Concentration 1 × 10^-4): 32%
CC(C)C[C@H](NC(=O)C(NC(=O)[C@H](Cc1ccccc1)NC(=O)OCc1ccccc1)OC(C)C)[C@@H](O)c1nccs1 (stereo partly drawn) [N-[N-(Benzyloxycarbonyl)-L-phenylalanyl-L-2-(1-methylethoxy)glycyl]-(S)2-amino-4-methyl-(R)1-(2-thiazolyl)pentan-1-ol]	6.55	–
CC(C)CO[C@@H](NC(=O)[C@H](Cc1ccccc1)NC(=O)OCc1ccccc1)C(=O)N[C@@H](CC1CCCCC1)[C@@H](O)c1ccccn1 [N-[N-(Phenylmethoxy)carbonyl-L-phenylalanyl-D-2-(2-methylpropoxy)glycyl]-(S)2-amino-3-cyclohexyl(R)1-(2-pyridinyl)propan-1-ol]	4.54	–
CC(C)CO[C@@H](NC(=O)[C@H](Cc1ccccc1)NC(=O)OCc1ccccc1)C(=O)N[C@@H](Cc1ccccc1)[C@@H](O)c1nccs1 [N-[N-(Benzyloxycarbonyl)-L-phenylalanyl-D-2-(2-methylpropoxy)glycyl]-(S)2-amino-3-phenyl-(R)1-(2-thiazoly)propan-1-ol]	–	% Renin Inhibition (Molar Concentration 1 × 10^-4): 74.6%; % Renin Inhibition (Molar Concentration 1 × 10^-5): 69.2%; % Renin Inhibition (Molar Concentration 1 × 10^-6): 41.0%
CC(C)COC(NC(=O)[C@H](Cc1ccccc1)NC(=O)OCc1ccccc1)C(=O)N[C@@H](CC1CCCCC1)[C@@H](O)c1nccs1 (stereo partly drawn) [N-[(Phenylmethoxy)carbonyl]-phenylalanyl-L-2-(2-methylpropox] [N-[(Phenylmethoxy)carbonyl]-L-phenylalanyl-L-2-(2-methylpropoxy)glycyl]-(1R,2S)-2-amino-3-cyclohexyl-1-(2-thiazolyl)propan-1-ol]	7.06	–
CC(C)COC(NC(=O)[C@H](Cc1ccccc1)NC(=O)OCc1ccccc1)C(=O)N[C@H](C=O)Cc1ccccc1 (stereo partly drawn) [N-[(Phenylmethoxy)carbonyl]-L-phenylalanyl-N-[(S)-1-formyl-2-phenylethyl]-L-2-(2-methylpropoxy)glycinamide]	–	% Renin Inhibition (Molar Concentration 1 × 10^-4): 66%; % Renin Inhibition (Molar Concentration 1 × 10^-5): 59%
CC(C)CO[C@H](NC(=O)[C@H](Cc1ccccc1)NC(=O)OCc1ccccc1)C(=O)N[C@@H](Cc1ccccc1)[C@@H](O)c1nccs1 [N-[N-(Benzyloxycarbonyl)-L-phenylalanyl-L-2-(2-methylpropxy)glycyl]-(S)2-amino-3-phenyl-(R)1-(2-thiazolyl)propan-1-ol]	6.33	% Renin Inhibition (Molar Concentration 1 × 10^-4): 85.0%; % Renin Inhibition (Molar Concentration 1 × 10^-5): 84.6%; % Renin Inhibition (Molar Concentration 1 × 10^-6): 76.2%
CC(C)C[C@H](NC(=O)C(NC(=O)[C@H](Cc1ccccc1)NC(=O)OCc1ccccc1)SC(C)C)[C@@H](O)c1nccs1 (stereo partly drawn) [N-[N-[(phenylmethoxy)carbonyl]-L-phenylalanyl-D-2-(isopropylthio)glycyl]-(S)2-amino-4-methyl-(R)1-(2-thiazolyl)pentan-1-ol]	–	% Renin Inhibition (Molar Concentration 1 × 10^-4): 25%
CC(C)C[C@H](NC(=O)C(NC(=O)[C@H](Cc1ccccc1)NC(=O)OCc1ccccc1)OC1CCCCC1)[C@@H](O)c1nccs1 (stereo partly drawn) [N-[N-(Benzyloxycarbonyl)-L-phenylalanyl-L-2-(cyclohexyloxy)glycyl]-(S)2-amino-4-methyl-(R)1-(2-thiazolyl)pentan-1-ol]	5.07	–
CC(C)C[C@@H](C=O)NC(=O)C(NC(=O)[C@H](Cc1ccccc1)NC(=O)OCc1ccccc1)OC(C)C (stereo partly drawn) [N-[(Phenylmethoxy)carbonyl]-L-phenylalanyl-N-(S)-1-formyl-3-methylbutyl]-L-2-(1-methylethoxy)glycinamide]	5.00	–
CC(C)OC(NC(=O)[C@H](Cc1ccccc1)NC(=O)OCc1ccccc1)C(=O)N[C@@H](CC1CCCCC1)[C@@H](O)c1nccs1 (stereo partly drawn) [N-[N-(Phenylmethoxy)carbonyl-L-phenylalanyl-L-2-(1-methyleth] [N-[N-[(Phenylmethoxy)carbonyl-L-phenylalanyl-L-2-(1-methylethoxy)glycyl]-(S)2-amino-b 3-cyclohexyl-(R)1-(2-thiazolyl)propan-1-ol]	9.00	–
CC(C)C[C@H](NC(=O)[C@H](Cc1ccccc1)NC(=O)OC(C)(C)C)C(=O)N[C@@H](CC1CCCCC1)[C@@H](O)c1ccco1 [N-[N-tert-Butoxycarbonyl)-L-phenylalanyl-L-leucyl]-(S)2-amino-3-cyclohexyl-(R)1-(2-furanyl)propan-1-ol]	7.62	–
CC(C)OC(NC(=O)[C@H](Cc1ccccc1)NC(=O)OCc1ccccc1)C(=O)N[C@@H](CC1CCCCC1)[C@@H](O)c1nccs1 (stereo partly drawn) [N-[N-(Phenylmethoxy)carbonyl-L-phenylalanyl-D-2-(1-methyleth] [N-[N-[(phenylmethoxy)carbonyl-L-phenylalanyl-D-2-(1-methylethoxy)glycyl](S)2-amino-3-cyclohexyl-(R)1-(2-thiazolyl)propan-1-ol]	5.06	–
